Laboratory results from patent US20260053773A1, “PHARMACEUTICAL COMPOSITION AND USE THEREOF” (AUHUI TONGOO PHARMACEUTICAL TECHNOLOGY CO., LTD., priority 2022, published 2026).
Several values for one entry are separate records, joined by “and”; a condition that tells them apart may be missing. Identical values can stand only once. Like-named read-outs stand apart in the source and are kept apart here.

Legend:
[1] = Inhibition of COM crystal growth in three growth directions, inhibitors alone and in combination pairs; conditions: for concentration of the single inhibitor achieving 10% inhibition of crystal growth / concentration of the single inhibitor achieving 30% inhibition of crystal growth / concentration of the single inhibitor achieving 70% inhibition of crystal growth / IC50: inhibitor alone; for IC50: read-out: concentration of the single inhibitor achieving 50% inhibition of crystal growth
Method: Different concentrations of citric acid (CA) and ellagic acid (EA) were added to 25 ml of deionized water, the supersaturation of the solution was controlled at S=2.4, and the growth process of the crystal was monitored.
The hollow symbols in the figure represent the concentration required for a single inhibitor to achieve a certain effect, and the same solid symbols represent the concentration required for a combination of the inhibitors to achieve the same effect.
Different concentrations of citric acid (CA) and gallic acid (GaA) were added to 25 ml of deionized water, and the growth process of the crystal was monitored.
Different concentrations of citric acid (CA) and pyrogallol (PGA) were added to 25 ml of deionized water, and the growth process of the crystal was monitored.
Different concentrations of citric acid (CA) and protocatechuic acid (PrA) were added to 25 ml of deionized water, and the growth process of the crystal was monitored.
Comparative Example 1 differed from Example 1 merely in that ellagic acid was replaced with albumin, and the other preparation methods were the same as those in Example 1.
Comparative Example 2 differed from Example 1 merely in that ellagic acid was replaced with o-hydroxybenzoic acid, and the other preparation methods were the same as those in Example 1.
Different concentrations of hydroxycitric acid (HCA) and ellagic acid (EA) were added to 25 ml of deionized water, supersaturation of the solution was controlled at S=2.4, and the growth process of the crystal was monitored.
Different concentrations of hydroxycitric acid (HCA) and gallic acid (GaA) were added to 25 ml of deionized water, and the growth process of the crystal was monitored.
Different concentrations of potassium citrate (KCA) and ellagic acid (EA) were added to 25 ml of deionized water, the supersaturation of the solution was controlled at S=2.4, and the growth process of the crystal was monitored.
Different concentrations of potassium citrate (KCA) and gallic acid (GaA) were added to 25 ml of deionized water, and the growth process of the crystal was monitored.

[2] = tested on: human proximal tubule cells (HK-2); assay: Cell death/survival of HK-2 cells exposed to COM crystals; assay type: cell-based; conditions: for synergistic enhancement order in improving cell activity: polyphenol (20 μM GaA, 20 μM EA, 40 μM PGA, 200 μM PrA) combined with citric acid 200 μM
Method: Studies have shown that reducing calcium oxalate crystallization, crystal-cell interactions, and cellular damage can prevent stone formation to some extent. On this basis, the present example further verified the combined effect of the pharmaceutical composition of citric acid (200 μM) and polyphenol molecules (20 μM GaA, 20 μM EA, 40 μM PGA, 200 µM PrA) in reducing cellular damage and crystal adhesion.
In order to explore the combined effects of the pharmaceutical composition on reducing crystal toxicity to cells, an in vitro model of direct exposure to COM crystals was selected in the present example to detect short-term cellular damage. In a culture medium environment with or without inhibitors, mature human proximal tubule cells (HK-2) were exposed to COM crystal suspension medium for the indicated times. […] However, in the presence of CA, the amount of cell death was reduced by 50% (FIG. 6).

[3] = tested on: human proximal tubule cells (HK-2); assay: Lactate dehydrogenase (LDH) release from HK-2 cells exposed to COM crystals; assay type: cell-based; conditions: 200 μM CA, 20 μM GaA
Text: (§1) Studies have shown that reducing calcium oxalate crystallization, crystal-cell interactions, and cellular damage can prevent stone formation to some extent.
Lactate dehydrogenase (LDH) is a cytoplasmic enzyme released into the extracellular space when the cell membrane ruptures, so the amount of LDH released can be used as a sign of cell membrane integrity.

HK-2 cells = assay: Adhesion of COM crystals to HK-2 cells in vitro; assay type: cell-based; conditions: Homo sapiens, 200 μM CA alone, compared with the blank group without inhibitor, read-out: inhibitory effect on COM crystal adhesion
Text: as §1

[4] = related studies; cited from earlier work

SMILES | concentration of the single inhibitor achieving 10% inhibition of crystal growth ([1]; [001] direction) | concentration of the single inhibitor achieving 30% inhibition of crystal growth ([1]; [001] direction) | concentration of the single inhibitor achieving 70% inhibition of crystal growth ([1]; [001] direction) | IC50 ([1]; [001] direction) | concentration of the single inhibitor achieving 10% inhibition of crystal growth ([1]; [021] direction) | concentration of the single inhibitor achieving 30% inhibition of crystal growth ([1]; [021] direction) | concentration of the single inhibitor achieving 70% inhibition of crystal growth ([1]; [021] direction) | IC50 ([1]; [021] direction) | concentration of the single inhibitor achieving 10% inhibition of crystal growth ([1]; [121] direction) | concentration of the single inhibitor achieving 30% inhibition of crystal growth ([1]; [121] direction) | concentration of the single inhibitor achieving 70% inhibition of crystal growth ([1]; [121] direction) | IC50 ([1]; [121] direction) | reduction of the amount of cell death ([2]; HK-2 cells exposed to COM crystals 24 hours, CA 200 μM) | LDH release compared with the control group [3] | inhibition at 200 µM (HK-2 cells) | inhibitory effect on calcium oxalate crystallization [4] | synergistic enhancement order in improving cell activity [2] | effect compared with citric acid ([1]; inhibition of COM crystal growth)
O=C(O)CC(O)(CC(=O)O)C(=O)O [CA, citric acid] | 0.0108 mM | 0.0369 mM | 0.1254 mM | 71 µM | 0.0121 mM | 0.0409 mM | 0.1380 mM | 79.5 µM | 0.0135 mM | 0.0458 mM | 0.1550 mM | 89 µM | 50% | 195.17% | 30% | 60% |  | 
O=c1oc2c(O)c(O)cc3c(=O)oc4c(O)c(O)cc1c4c23 [EA, ellagic acid] | 8.4e-06 mM and 1.04e-05 mM and 1.05e-05 mM | 3.86e-05 mM and 3.09e-05 mM and 3.85e-05 mM | 0.0001322 mM and 0.0001041 mM and 0.0001312 mM | 0.0761 µM and 0.0609 µM and 0.0763 µM | 1.17e-05 mM and 9.4e-06 mM and 1.16e-05 mM | 3.98e-05 mM and 3.2e-05 mM and 3.99e-05 mM | 0.0001369 mM and 0.0001095 mM and 0.0001358 mM | 0.0772 µM and 0.056 µM and 0.0771 µM | 1.64e-05 mM and 1.31e-05 mM and 1.65e-05 mM | 5.62e-05 mM and 4.49e-05 mM and 5.61e-05 mM | 0.0001884 mM and 0.00015 mM and 0.0001879 mM | 0.11 µM and 0.0888 µM |  |  |  |  | GaA>PcA>PGA>EA | 
O=C(O)c1cc(O)c(O)c(O)c1 [GaA, gallic acid] | 0.0003716 mM and 0.0004677 mM and 0.0004678 mM | 0.0015906 mM and 0.0012801 mM and 0.00159 mM | 0.0053799 mM and 0.0043049 mM and 0.0053797 mM | 3.1 µM and 2.4 µM | 0.0003743 mM and 0.0002994 mM and 0.0003744 mM | 0.0012912 mM and 0.0010221 mM and 0.001291 mM | 0.0043601 mM and 0.003488 mM and 0.00436 mM | 2.51 µM and 1.8 µM | 0.0004959 mM and 0.0003967 mM | 0.0016841 mM and 0.0013473 mM and 0.0016842 mM | 0.0056887 mM and 0.004551 mM and 0.0056881 mM | 3.27 µM and 2.62 µM |  |  |  |  | GaA>PcA>PGA>EA | 
O=C(O)CC(O)(C(=O)O)C(O)C(=O)O (stereo not drawn) [HCA, hydroxycitric acid] | 0.0088 mM | 0.0281 mM | 0.1003 mM | 56.1 µM | 0.0096 mM | 0.0320 mM | 0.1104 mM | 61 µM | 0.0110 mM | 0.0367 mM | 0.1240 mM | 72 µM |  |  |  |  |  | 
O=C([O-])CC(O)(CC(=O)[O-])C(=O)[O-].[K+].[K+].[K+] [KCA, potassium citrate] | 0.0106 mM | 0.0369 mM | 0.1253 mM | 70.9 µM | 0.0123 mM | 0.0401 mM | 0.1369 mM | 79.4 µM | 0.0135 mM | 0.0451 mM | 0.1547 mM | 88.1 µM |  |  |  |  |  | almost the same
Oc1cccc(O)c1O [PGA, pyrogallol] | 0.0021 mM | 0.0073 mM | 0.0245 mM | 14.2 µM | 0.0018 mM | 0.0062 mM | 0.0210 mM | 12.1 µM | 0.0027 mM | 0.0091 mM | 0.0309 mM | 17.7 µM |  |  |  |  | GaA>PcA>PGA>EA | 
O=C(O)c1ccc(O)c(O)c1 [PrA, protocatechuic acid] | 0.0255 mM | 0.0982 mM |  | 264 µM | 0.0187 mM | 0.0702 mM |  | 186 µM | 0.0307 mM | 0.1174 mM |  | 316 µM |  |  |  |  | GaA>PcA>PGA>EA | 
